According to PubChem BioAssay (NCI):
“And” between values parts separate entries of the source, which are not always exact repeats. Equal values may be shown once.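 A five-concentration, 48-hour dose response in 96-well plates underlies each endpoint, interpolated linearly between surrounding concentrations. Here, GI50 denotes the concentration required for 50% inhibition of growth. TGI marks complete inhibition of growth.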

What was measured:
Assay in all cases: DTP human tumour cell line panel, 48 h
IGROV1 ovarian = system: IGROV1 ovarian
EKVX NSCLC = system: EKVX NSCLC
LXFL 529 NSCLC = system: LXFL 529 NSCLC
NCI-H23 lung = system: NCI-H23 lung
ACHN renal = system: ACHN renal
KM20L2 colon = system: KM20L2 colon
OVCAR-3 ovarian = system: OVCAR-3 ovarian
NCI-H460 lung = system: NCI-H460 lung
LOX IMVI melanoma = system: LOX IMVI melanoma
OVCAR-8 ovarian = system: OVCAR-8 ovarian

SMILES | TGI (IGROV1 ovarian) | TGI (EKVX NSCLC) | TGI (LXFL 529 NSCLC) [µM] | TGI (NCI-H23 lung) | TGI (ACHN renal) | TGI (KM20L2 colon) | TGI (OVCAR-3 ovarian) | TGI (NCI-H460 lung) | TGI (LOX IMVI melanoma) | TGI (OVCAR-8 ovarian) | GI50 (IGROV1 ovarian) | GI50 (EKVX NSCLC) [nM] | GI50 (NCI-H23 lung) | GI50 (ACHN renal) [nM] | GI50 (OVCAR-3 ovarian) | GI50 (NCI-H460 lung) | GI50 (LOX IMVI melanoma) | GI50 (OVCAR-8 ovarian) | GI50 (LXFL 529 NSCLC) [µM] | GI50 (KM20L2 colon) [nM]
CCC12CCCN(Cc3ccccc3)C1c1c(n(C)c3ccccc13)CC2 (configuration not stated) | > 253 µM | > 253 µM | > 253 | > 253 µM | > 253 µM | > 253 µM | 215 µM | > 253 µM | > 253 µM | > 253 µM | – | – | – | – | – | – | – | – | – | –
COC(=O)C[C@](O)(CCCC(C)(C)O)C(=O)O[C@@H]1C(OC)=C[C@]23CCCN2CCc2cc4c(cc2[C@H]13)OCO4 | 1.4 µM and 0.795 µM | 0.688 µM and 0.472 µM | – | 0.548 µM and 0.086 µM | 4.64 µM and 0.541 µM | 0.338 µM | – | 0.27 µM and 0.088 µM | – | – | 28.4 nM | 48.6 | 24.6 nM | 40.7 | 251 nM and 28.6 nM | 16 nM and < 10 nM | 12.9 nM | 28.7 nM | – | –
N.N.N.N.O=C([O-])CCl.O=C([O-])CCl.[Co+3].[O-][Cl+3]([O-])([O-])[O-] | > 100 µM | > 100 µM | > 100 | > 100 µM | > 100 µM | > 100 µM | > 100 µM | > 100 µM | > 100 µM | > 100 µM | > 100000 nM | > 100000 | > 100000 nM | > 100000 | > 100000 nM | > 100000 nM | > 100000 nM | > 100000 nM | > 100 | > 100000
CN(C)CCNC(=O)c1cccc2ccc(-c3ccc(O)cc3)nc12 | 15.7 µM and 11.8 µM | 26.3 µM | – | 10.1 µM and 12.4 µM | 4.98 µM | 21.7 µM | 15.2 µM and 15.9 µM | 2.85 µM and 2.99 µM | 3.43 µM | 4.13 µM | 2060 nM | – | – | – | – | 637 nM | – | – | – | –
CCN(CC)CCCN1CCc2c([nH]c3ccccc23)C1c1cccnc1 (configuration not stated) | > 100 µM | > 100 µM | > 100 | > 100 µM | > 100 µM | > 100 µM | > 100 µM | > 100 µM | > 100 µM | > 100 µM | – | – | – | – | – | – | – | – | – | –
OC(CC1SCCCS1)c1ccccc1 (configuration not stated) | > 100 µM | > 100 µM | > 100 | > 100 µM | > 100 µM | > 100 µM | > 100 µM | > 100 µM | – | > 100 µM | – | – | – | – | – | – | – | – | – | –
CC1(C)COC(C2(C)C(=O)C=C(c3ccccc3)c3ccccc32)=N1 (configuration not stated) | > 100 µM | > 100 µM | > 100 | > 100 µM | > 100 µM | > 100 µM | > 100 µM | > 100 µM | – | > 100 µM | – | – | – | – | – | – | – | – | – | –
COc1ccc2occ(CCC(=O)O)c2c1 | > 100 µM | > 100 µM | > 100 | > 100 µM | > 100 µM | > 100 µM | > 100 µM | > 100 µM | > 100 µM | > 100 µM | – | – | – | – | – | – | – | – | – | –
O=C(CCN(C(=O)O)S(=O)(=O)c1ccc(NC(=O)c2ccccc2)cc1)Nc1ccccc1 | > 100 µM | > 100 µM | > 100 | > 100 µM | > 100 µM | > 100 µM | > 100 µM | > 83.6 µM | > 71.4 µM | > 100 µM | – | – | – | – | – | – | – | – | – | –
COc1cccc2c1C(=O)c1c(O)c3c(c(O)c1C2=O)C[C@@](O)(C(=O)CO)C[C@@H]3OC1CC(N)CC(C)O1 (some centres not stated) | 1.25 µM and 1.6 µM | 0.839 µM and 0.61 µM | 0.951 | 0.325 µM and 0.259 µM | 0.289 µM | 0.528 µM and 1.41 µM | 1.11 µM and 1.22 µM | 0.421 µM and 0.192 µM | 0.262 µM and 0.12 µM | 1.13 µM and 0.546 µM | 50.4 nM and 43.6 nM | 152 | 40.5 nM and 38.7 nM | 17.5 | 102 nM | – | 29.5 nM and 23.1 nM | 35.9 nM and 52 nM | – | 54.5
COC(=O)C(C(=O)c1ccccc1)C(C(=O)C(=O)Nc1ccc(OC)cc1OC)C(=O)C(=O)c1ccc(C)cc1 (configuration not stated) | > 100 µM | > 100 µM | > 100 | > 100 µM | > 100 µM | > 100 µM | > 100 µM | > 100 µM | > 100 µM | > 100 µM | – | – | – | – | – | – | – | – | – | –
c1ccc2cc(-c3cc4ccccc4s3)ccc2c1 | > 100 µM | > 100 µM | – | > 100 µM | > 100 µM | > 100 µM | > 100 µM | > 100 µM | > 100 µM | > 100 µM | – | – | – | – | – | – | – | – | – | –
CC(C)CCC1CC2C(=O)N(c3ccccc3)C(=O)C2c2[nH]c3ccccc3c21 (configuration not stated) | 28.4 µM | 11.6 µM | 20.2 | 12.9 µM | 21.5 µM | – | 7.63 µM | 12.2 µM | 14.6 µM | 11.7 µM | – | – | – | – | – | – | – | – | – | –
O=[N+]([O-])c1cccc(C2=NN(c3ccccc3)C[N+](c3ccc(Br)cc3)=N2)c1 | > 100 µM | > 100 µM | > 100 | > 100 µM | > 100 µM | > 100 µM | – | > 100 µM | – | > 100 µM | – | – | – | – | – | – | – | – | – | –
O=C(Nc1ccn(CCO)c(=O)n1)c1ccccc1 | > 100 µM | > 100 µM | > 100 | – | > 100 µM | > 100 µM | > 100 µM | > 100 µM | > 100 µM | > 100 µM | – | – | – | – | – | – | – | – | – | –
CCCCCCCCCCCCCC(=O)OCC(C[As](=O)(O)O)OC(=O)CCCCCCCCCCCCC (configuration not stated) | > 100 µM | > 100 µM | > 100 | > 100 µM | > 100 µM | > 100 µM | > 100 µM | > 100 µM | – | > 100 µM | – | – | – | – | – | – | – | – | – | –
Cc1c2n(c(=O)[nH]c1=O)C1OC(CO)C(O2)C1O (configuration not stated) | > 100 µM | > 100 µM | > 100 | > 100 µM | > 100 µM | > 100 µM | > 100 µM | > 100 µM | > 100 µM | > 100 µM | – | – | – | – | – | – | – | – | – | –
N#CN/C(N)=N/CO | > 100 µM | > 100 µM | > 100 | > 100 µM | > 100 µM | > 100 µM | > 100 µM | > 100 µM | > 57.7 µM | > 100 µM | – | – | – | – | – | – | – | – | – | –
O=c1/c(=C/c2ccccc2[N+](=O)[O-])sc2nnc(-c3ccco3)n12 | 56.3 µM | > 100 µM | 34.5 | 64 µM | > 100 µM | > 100 µM | 32.4 µM | 56.2 µM | 31.8 µM | 32.5 µM | – | – | – | – | – | – | – | – | – | –
CCOC(=O)c1cnc2c(ccc3[nH]n(C)nc32)c1=O | > 100 µM | > 100 µM | > 100 | > 100 µM | > 100 µM | > 100 µM | > 100 µM | > 100 µM | – | > 100 µM | – | – | – | – | – | – | – | – | – | –
CC(=O)CCn1c(=S)sc2ccccc21 | > 100 µM | > 100 µM | – | > 100 µM | > 100 µM | – | > 100 µM | > 100 µM | > 100 µM | > 100 µM | – | – | – | – | – | – | – | – | – | –
